# Data taken from US6933272B1 (priority 1998, dated 2005).
# Read-outs that look alike come from different tables or passages of the source.
# Tests used:
# [1] = biological target: insulin receptor β-subunit associated tyrosine kinase activity (Homo sapiens, UniProt P06213); assay: Protein tyrosine kinase (PTK) assay, 32P incorporation into FYF peptide; assay type: biochemical
# Procedure: Protein tyrosine kinase activity was determined using a modification of the method of N. Konstantopoulos (22).
# The reaction was allowed to proceed for 20 minutes at 30° C. before it was terminated by the addition of 12.5 μL of 7.5 M guanidine hydrochloride. An aliquot (10 μL) of the reaction mixture was then spotted onto a Whatman 81 phosphocellulose paper (15 mm×15 mm), washed three times (2 min per wash) in about 50 mL of 30% acetic acid, 0.05% orthophosphoric acid then finally, with one wash in about 200 mL of water. The papers were then rinsed briefly (15 sec) in 95% ethanol, dried, suspended in 2.5 mL of scintillation fluid (Beckman) and counted for radioactivity in a Beckman β-counter.
# 3T3L1 adipocyte cells = assay: Glucose transport (3H-deoxyglucose uptake) in 3T3L1 adipocyte cells; assay type: cell-based, mouse; details: for effect of compound alone on glucose transport: basal, no insulin
# Procedure: Glucose transport was determined using a modification of the method of S. J. Isakoff et at. (23). The assay involved measuring the effect of compounds on the uptake of ^3H-deoxyglucose into 3T3L1 adipocyte cells.
# The cell line, 3T3-L1, derived from mouse embryo fibroblasts, was grown in 250 mL tissue culture flasks containing 15 mL medium made up of DMEM (Dulbecco's modified Eagle's medium containing glutamine, 2 mM; sodium bicarbonate, 30 mM; penicillin 71.5 mg/litre; streptomycin, 152.5 mg/litre) supplemented with 10% foetal calf serum (FCS), pH 7.4. Cells were maintained in a humidified incubator at 37° C. in a 5% CO2 environment. The medium was changed every 3 days and the cells were split when they were about 70-80% confluent.
# 3T3-L1 fibroblast cells from one tissue culture flask were suspended in 50 mL of DMEM media containing 10% FCS and 0.5 mL of this suspension were seeded into each well of two 48-well tissue culture plates. The differentiation of the cells was initiated when the fibroblast cells were fully confluent. Routinely, differentiation was induced on cells that had been growing in tissue culture plates for 4-5 days. […] The cells were subsequently maintained with DMEM medium containing 10% FCS.
# One day prior to the glucose transport assay, cell medium was replaced with DMEM containing 10% charcoal-treated foetal calf serum (CTFCS). On the day of the assay, the medium was aspirated and each well was washed with 1 mL of 25 mM Hepes, pH 7.4 containing 0.9% NaCl (NaCl-HEPES). […] Ten microlitres of NaCl-HEPES containing 3 mM 2-deoxy-D-glucose and 0.1 μCi 2-deoxy-D-[1-^3H]glucose were then added. Following a 10 min incubation at 37° C., the medium was aspirated off and the wells rapidly washed three times with 1 mL of ice-cold 50 mM phosphate, pH 7.5 containing 150 mM NaCl (PBS) and 10 mM glucose. Two hundred microlitres of 3% Triton X-100 was then added to each well and left to incubate for a minimum of 10 minutes. One hundred microlitres of the solubilised cells was then added to 2.5 mL of liquid scintillation fluid and counted for radioactivity in a Beckman β-counter.
# insulin receptor [2] = biological target: T1, insulin receptor (Homo sapiens, UniProt P06213); assay: Assays of insulin action (several biological assays, classification agonist/antagonist)
# Target sequence in this assay (P06213 with tags, fused parts or gaps): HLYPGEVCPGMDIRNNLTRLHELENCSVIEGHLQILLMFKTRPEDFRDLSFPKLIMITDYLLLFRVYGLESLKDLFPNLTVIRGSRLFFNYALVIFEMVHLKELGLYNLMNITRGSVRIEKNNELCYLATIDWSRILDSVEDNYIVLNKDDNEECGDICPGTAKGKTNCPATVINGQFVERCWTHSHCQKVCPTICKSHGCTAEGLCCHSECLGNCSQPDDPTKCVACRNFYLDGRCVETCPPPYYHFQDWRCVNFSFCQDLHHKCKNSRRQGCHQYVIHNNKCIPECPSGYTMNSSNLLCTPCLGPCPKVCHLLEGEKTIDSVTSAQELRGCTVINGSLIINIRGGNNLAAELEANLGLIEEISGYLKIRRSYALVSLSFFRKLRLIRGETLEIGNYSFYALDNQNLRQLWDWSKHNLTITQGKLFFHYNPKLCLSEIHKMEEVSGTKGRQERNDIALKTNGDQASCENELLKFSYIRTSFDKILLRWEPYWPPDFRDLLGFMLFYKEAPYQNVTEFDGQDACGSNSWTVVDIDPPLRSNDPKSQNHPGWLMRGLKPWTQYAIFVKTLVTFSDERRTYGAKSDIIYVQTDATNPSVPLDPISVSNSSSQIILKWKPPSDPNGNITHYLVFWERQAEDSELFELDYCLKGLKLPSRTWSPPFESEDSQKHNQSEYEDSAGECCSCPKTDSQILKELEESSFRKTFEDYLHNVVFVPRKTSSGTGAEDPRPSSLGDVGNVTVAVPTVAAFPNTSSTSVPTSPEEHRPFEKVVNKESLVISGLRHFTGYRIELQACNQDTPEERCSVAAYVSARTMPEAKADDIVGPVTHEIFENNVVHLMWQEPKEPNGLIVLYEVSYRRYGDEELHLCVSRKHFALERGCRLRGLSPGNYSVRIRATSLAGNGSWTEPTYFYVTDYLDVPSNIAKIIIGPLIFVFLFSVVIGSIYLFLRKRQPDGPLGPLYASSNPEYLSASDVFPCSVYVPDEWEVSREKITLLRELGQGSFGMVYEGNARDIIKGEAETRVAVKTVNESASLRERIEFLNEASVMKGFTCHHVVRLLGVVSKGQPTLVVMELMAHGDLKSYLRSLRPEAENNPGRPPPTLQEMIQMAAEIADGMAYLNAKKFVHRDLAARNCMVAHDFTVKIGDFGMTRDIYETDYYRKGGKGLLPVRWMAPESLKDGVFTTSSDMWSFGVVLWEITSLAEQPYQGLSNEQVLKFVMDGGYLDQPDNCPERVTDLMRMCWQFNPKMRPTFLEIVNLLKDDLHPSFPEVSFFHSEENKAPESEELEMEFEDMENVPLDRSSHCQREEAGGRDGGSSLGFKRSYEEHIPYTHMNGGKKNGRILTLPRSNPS
# [3] = biological target: T2, insulin receptor β-subunit (Homo sapiens, UniProt P06213); assay: Insulin receptor autophosphorylation (32P into 90 kDa band); assay type: biochemical
# T2 construct: expressed in transfected cells
# T2 sequence (P06213 28-758): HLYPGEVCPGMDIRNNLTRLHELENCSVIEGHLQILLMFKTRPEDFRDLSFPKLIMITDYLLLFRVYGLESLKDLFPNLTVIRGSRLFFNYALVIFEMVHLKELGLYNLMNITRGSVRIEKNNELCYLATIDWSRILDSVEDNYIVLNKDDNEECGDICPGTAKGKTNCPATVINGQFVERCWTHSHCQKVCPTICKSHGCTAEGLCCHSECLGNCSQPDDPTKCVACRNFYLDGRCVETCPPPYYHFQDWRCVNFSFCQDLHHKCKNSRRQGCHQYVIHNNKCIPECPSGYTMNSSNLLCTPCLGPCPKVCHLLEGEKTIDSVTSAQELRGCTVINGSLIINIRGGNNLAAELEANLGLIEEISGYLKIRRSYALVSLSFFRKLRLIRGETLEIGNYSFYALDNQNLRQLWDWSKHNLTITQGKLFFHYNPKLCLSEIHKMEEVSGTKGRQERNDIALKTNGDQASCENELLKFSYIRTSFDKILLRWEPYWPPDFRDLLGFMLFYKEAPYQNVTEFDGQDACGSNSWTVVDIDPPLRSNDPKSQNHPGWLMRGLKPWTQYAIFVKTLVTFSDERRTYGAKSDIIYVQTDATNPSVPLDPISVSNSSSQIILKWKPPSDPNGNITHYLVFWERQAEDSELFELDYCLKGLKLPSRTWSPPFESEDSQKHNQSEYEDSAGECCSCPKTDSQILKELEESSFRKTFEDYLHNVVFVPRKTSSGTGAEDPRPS
# T2 sequence (P06213 763-1382): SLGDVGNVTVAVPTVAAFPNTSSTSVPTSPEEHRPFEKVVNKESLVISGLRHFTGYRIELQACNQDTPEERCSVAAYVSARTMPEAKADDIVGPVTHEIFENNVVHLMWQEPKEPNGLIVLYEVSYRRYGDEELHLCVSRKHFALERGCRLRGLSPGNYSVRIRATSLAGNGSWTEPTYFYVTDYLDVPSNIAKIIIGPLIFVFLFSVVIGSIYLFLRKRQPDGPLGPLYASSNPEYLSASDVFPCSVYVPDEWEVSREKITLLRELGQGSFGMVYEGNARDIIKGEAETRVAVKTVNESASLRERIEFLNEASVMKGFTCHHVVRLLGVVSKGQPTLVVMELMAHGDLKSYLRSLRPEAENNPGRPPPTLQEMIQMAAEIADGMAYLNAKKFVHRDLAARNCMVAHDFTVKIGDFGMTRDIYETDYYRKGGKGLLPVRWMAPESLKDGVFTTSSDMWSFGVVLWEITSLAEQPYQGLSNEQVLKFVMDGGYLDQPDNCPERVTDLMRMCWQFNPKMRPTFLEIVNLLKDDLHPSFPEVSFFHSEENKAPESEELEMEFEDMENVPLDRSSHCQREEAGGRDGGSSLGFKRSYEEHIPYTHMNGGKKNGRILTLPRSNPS
# Procedure: After this preincubation, 2.5 μL of 1 mM ATP, 100 mM sodium orthovanadate and 5 μCi of [γ-^32P]ATP were added and incubated at room temperature for 25 minutes. The reaction was terminated by the addition of 1.5 μL of 0.5 M EDTA and 3.5 μL of 1.5 M NaCl. The solution was then either solubilised and resolved by SDS-PAGE or immunoprecipitated using anti-insulin Rβ (29B4) mouse monoclonal IgG or anti-phosphotyrosine (PY20) mouse monoclonal IgG (Santa Cruz Biotechnology Inc., USA), solubilised and then resolved by SDS-PAGE. Immunoprecipitation was performed by incubating one microgram of antibody with the reaction mixture over night at 4° C. […] The receptor-antibody-Sepharose complex was separated from the supernatant by centrifugation at 7,500 g for 5 minutes. The pellet was washed three times in TBS containing 0.1% Triton X-100 and 10 μL of 0.1 M glycine, pH 3.3 was added. The solution was then solubilised by incubation for 5 minutes at 100° C. in 10 μL of 80 mM Tris-HCl, pH 6.8 containing 0.45 M DTT, 56 mM EDTA, 30% sucrose and 6% SDS. Following centrifugation for 5 minutes at 7,500 g, the supernatant was resolved on a 7.5% SDS polyacrylamide gel. […] In some instances, gel bands corresponding to 90 kDa were excised and the associated radioactivity was measured by suspending the gel band in 2.5 mL of Scintillation fluid (Beckman) using a Beckman β-counter.
# insulin receptor [4] = biological target: T1, insulin receptor; assay: 125I insulin binding to human placental plasma membranes (HPPM); set-up: Human Placental Plasma Membranes—50 mM Hepes, pH 7.8 @ 4 C containing 100 U/mL Bacitracin; from tissue; host or cells: human placenta, plasma membranes; details: human placental plasma membranes, 16 h at 4° C.
# Procedure: (§1) Tubes were mixed and incubated for 16 h at 4° C. After the incubation, the tubes were placed on ice and 300 μL of a 1:5 suspension of 0.4% bovine-γ-globulin in 20% polyethyleneglycol 6000 (BDH chemicals) was added to each tube, mixed thoroughly and left to incubate for 30 min on ice. The tubes were then centrifuged (3,000 g) for 30 min at 4° C., the supernatant was aspirated off and the pellet counted for radioactivity. […] Inhibition constants were estimated by graphical analysis of displacement plots or calculated using the curve fitting programs EBDA and/or LIGAND.
# Target sequence in this assay (P06213 28-758 limits assumed): as the sequence (P06213 28-758) above
# IGF-1 receptor [5] = assay: 125I IGF-1 binding to human placental plasma membranes (HPPM); details: same source of receptors (HPPM)
# IGF-1 receptor [6] = biological target: T3, IGF-1 receptor (Homo sapiens, UniProt P08069); assay: as above; set-up: from tissue; host or cells: human placenta, plasma membranes; details: HPPM
# T3 sequence (P08069 31-736 limits assumed): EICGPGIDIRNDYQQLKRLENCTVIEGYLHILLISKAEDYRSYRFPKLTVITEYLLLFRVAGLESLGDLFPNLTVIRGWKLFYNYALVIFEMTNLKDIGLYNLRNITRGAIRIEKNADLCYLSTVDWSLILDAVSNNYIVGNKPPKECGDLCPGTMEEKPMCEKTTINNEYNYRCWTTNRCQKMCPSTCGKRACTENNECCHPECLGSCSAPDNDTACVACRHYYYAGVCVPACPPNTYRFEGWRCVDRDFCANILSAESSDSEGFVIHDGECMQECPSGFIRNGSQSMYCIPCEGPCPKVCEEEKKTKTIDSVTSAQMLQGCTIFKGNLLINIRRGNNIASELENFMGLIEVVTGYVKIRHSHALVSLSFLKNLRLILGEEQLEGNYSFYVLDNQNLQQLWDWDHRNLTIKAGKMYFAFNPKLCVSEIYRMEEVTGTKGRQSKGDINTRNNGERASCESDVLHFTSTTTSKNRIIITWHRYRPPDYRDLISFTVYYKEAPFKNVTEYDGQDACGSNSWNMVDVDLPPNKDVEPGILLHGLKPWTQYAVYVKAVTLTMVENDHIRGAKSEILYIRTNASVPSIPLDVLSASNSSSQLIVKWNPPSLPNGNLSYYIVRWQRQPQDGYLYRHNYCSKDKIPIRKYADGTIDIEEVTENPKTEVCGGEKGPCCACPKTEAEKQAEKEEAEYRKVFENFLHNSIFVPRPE
# insulin receptor [7] = biological target: T1, insulin receptor; assay: 125I insulin binding to wheat germ agglutinin purified insulin receptors (WGA.IR); set-up: host or cells: several: placental membranes, CHO.T11 cells, WGA purified receptors; details: LIGAND 1-site fit
# Procedure: as §1
# Target sequence in this assay (P06213 28-758 limits assumed): as the sequence (P06213 28-758) above
# IGF-1 receptor [8] = biological target: T3, IGF-1 receptor; assay: Phosphorylation of immunoprecipitated IGF-1 receptors; assay type: biochemical; details: immunoprecipitated IGF-1 receptors free of insulin receptors
# NIH 3T3 HIR3.5 cells = details: read-out: half maximal insulin concentration for stimulation of 3H-deoxyglucose; cited from earlier work
# Chain of insulin receptor β-subunit associated tyrosine kinase activity (P06213 28-758 limits assumed): as the sequence (P06213 28-758) above
molecule,measurement,setting,value
"3,4-dihydro-7-[[6-(4-methoxyphenyl)hexenyl]oxy]-8-propyl-2H-1-benzopyran-2-carboxylic acid [IM 172]",effect of compound alone on 32P incorporation into FYF peptide,"[1]; basal, absence of insulin",does not increase ^32P incorporation into FYF peptide
same,Ki,"[1]; inhibition of insulin stimulation, read-out: estimated inhibition constant, PTK assay",80 µM
same,Ki,"3T3L1 adipocyte cells; 3T3L1 cells, 2 nM insulin, read-out: estimated inhibition constant (Ki), glucose transport assay",80 µM
same,effect of compound alone on glucose transport,3T3L1 adipocyte cells,does not activate glucose transport in 3T3L1 cells
same,classification of insulin action,insulin receptor [2],antagonists of insulin action
same,effect on 32P incorporation into insulin receptor β-subunit,[3]; basal,does not increase ^32P incorporation into FYF peptide or the insulin receptor β-subunit
same,Ki,"insulin receptor [4]; read-out: apparent Ki (inhibition constant), competition for 125I insulin binding",218 µM
"CCCc1c(OCCCOc2ccc(C(C)=O)c(OC)c2CCC)ccc2c1OC(C(=O)O)CC2 (stereo not shown) [IM 129, 7-[3-(4-acetyl-3-methoxy-2-propylphenoxy)propoxy]-3,4-dihydro-8-propyl-2H-1-benzopyran-2-carboxylic acid]",classification of insulin action,insulin receptor [2],antagonists of insulin action
same,IC50,"insulin receptor [2]; PTK and glucose transport (FIGS. 8 and 9), read-out: apparent IC50 in several biological assays",30 to 200 µM
same,apparent Ki for 125I IGF-1 binding relative to Ki for 125I insulin binding,IGF-1 receptor [5],approximately two fold higher
same,Ki,"IGF-1 receptor [6]; read-out: apparent Ki, displacement of 125I IGF-1 binding",800 to 1300 µM
same,Ki,insulin receptor [7],189 µM
same,Ki,insulin receptor [4],320 to 550 µM
"Cc1ccc(C(=O)Nc2ccc(S(=O)(=O)O)c3cc(S(=O)(=O)O)cc(S(=O)(=O)O)c23)cc1NC(=O)c1cccc(NC(=O)Nc2cccc(C(=O)Nc3cc(C(=O)Nc4ccc(S(=O)(=O)O)c5cc(S(=O)(=O)O)cc(S(=O)(=O)O)c45)ccc3C)c2)c1 [IM 175, 8,8′-[Carbonylbis[imino-3,1-phenylenecarbonylimino(4-methyl-3,1-phenylene)carbonylimino]]bis-1,3,5-naphthalenetrisulfonic acid]",EC50,"3T3L1 adipocyte cells; Mus musculus, 3T3-L1, compound alone, read-out: apparent EC50, stimulation of glucose transport",~250 µM
same,effect of compound alone on glucose transport,3T3L1 adipocyte cells,levels approaching maximal stimulation by insulin
same,classification of insulin action,insulin receptor [2],agonists of insulin action
same,"autophosphorylation of insulin receptor β-subunits, efficacy relative to insulin","[3]; relative to 100 nM dose of insulin, immunoprecipitated insulin receptors",about 65%
same,effect on IGF-1 receptor phosphorylation,IGF-1 receptor [8],can also stimulate the IGF-1 receptor
same,effect on IGF-1 receptor phosphorylation,IGF-1 receptor [8]; listed as IM175,lower potency on IGF-1 receptors than it does on insulin receptors
same,Ki,"IGF-1 receptor [6]; read-out: Ki, competition for 125I IGF-1 binding",9 µM
same,Ki,insulin receptor [4],46 to 48 µM
insulin: peptidyl ligand; the most important regulatory hormone involved in maintaining glucose homeostasis,EC50,NIH 3T3 HIR3.5 cells,0.0001 µM
